Laboratory results taken from patent publication US20250333406A1, “SULFONYL CYCLIC DERIVATIVES, AND COMPOSITIONS AND METHODS THEREOF” (Lysoway Therapeutics, Inc., priority 2023, published 2025).

test system: TFEB; experiment: TFEB Nuclear Translocation Assay; format: cell-based; conditions: read-out: EC50 of TFEB activation

SMILES | EC50 [nM]
CC(C)S(=O)(=O)c1ccc(S(=O)(=O)n2nc(N3CCN(c4ccc(Cl)cn4)CC34CC4)c3c(Cl)cccc32)s1 [Compound 47, 4-chloro-3-[7-(5-chloro-2-pyridyl)-4,7-diazaspiro[2.5]octan-4-yl]-1-[(5-isopropylsulfonyl-2-thienyl)sulfonyl]indazole] | ≤ 1000
CC(C)S(=O)(=O)c1ccc(S(=O)(=O)n2nc(N3CCC(N(C)C)CC34CC4)c3c(Cl)cccc32)s1 (centres unmarked) [Compound 13, 4-[4-chloro-1-[(5-isopropylsulfonyl-2-thienyl)sulfonyl]indazol-3-yl]-N, N-dimethyl-4-azaspiro [2.5]octan-7-amine] | ≤ 1000
CC(C)(C)S(=O)(=O)c1ccc(S(=O)(=O)n2nc(N3CCN(c4ncc(F)cn4)CC34CC4)c3c(Cl)cccc32)s1 [Compound 49, 1-((5-(tert-butylsulfonyl)thiophen-2-yl)sulfonyl)-4-chloro-3-(7-(5-fluoropyrimidin-2-yl)-4,7-diazaspiro [2.5]octan-4-yl)-1H-indazole] | ≤ 1000
CC(F)(F)C12CC(S(=O)(=O)n3nc(N4CCN(c5ncc(F)cn5)CC45CC5)c4c(Cl)cccc43)(C1)C2 [Compound 129, 4-chloro-1-((3-(1,1-difluoroethyl)bicycle [1.1.1]pentan-1-yl)sulfonyl)-3-(7-(5-fluoropyrimidin-2-yl)-4,7-diazaspiro [2.5]octan-4-yl)-1H-indazole] | ≤ 1000
CC(C)S(=O)(=O)c1ccc(S(=O)(=O)n2nc(N3CCN(c4ncc(F)cn4)CC3(C)C)c3c(Cl)cccc32)cc1 [Compound 18, 4-chloro-3-(4-(5-fluoropyrimidin-2-yl)-2,2-dimethylpiperazin-1-yl)-1-((4-(isopropylsulfonyl)phenyl)sulfonyl)-1H-indazole] | ≤ 1000
CC(C)S(=O)(=O)n1ccc(S(=O)(=O)n2nc(N3CCN(c4ncc(F)cn4)C[C@@H]3C)c3c(Cl)cc(F)cc32)c1 [Compound 177, 4-chloro-6-fluoro-3-[(2S)-4-(5-fluoropyrimidin-2-yl)-2-methyl-piperazin-1-yl]-1-(1-isopropylsulfonylpyrrol-3-yl) sulfonyl-indazole] | ≤ 1000
CC(C)S(=O)(=O)c1nc(S(=O)(=O)n2nc(N3CCN(c4ncc(Cl)cc4F)CC34CC4)c3c(Cl)cccc32)cs1 [Compound 196, 4-((4-chloro-3-(7-(5-chloro-3-fluoropyridin-2-yl)-4,7-diazaspiro [2.5]octan-4-yl)-1H-indazol-1-yl)sulfonyl)-2-(isopropylsulfonyl) thiazole] | ≤ 1000
CC(F)(F)c1ccc(S(=O)(=O)n2nc(N3CCN(c4ncc(F)cn4)C[C@@H]3C(C)(C)F)c3c(Cl)cccc32)cc1 (single isomer, unassigned) [Compound 122] | ≤ 1000
Cc1cc(S(=O)(=O)n2nc(N3CCN(c4ncc(F)cc4F)CC34CC4)c3c(Cl)cc(F)cc32)c(C)n1S(=O)(=O)C(C)C [Compound 160, 4-chloro-3-[7-(3,5-difluoro-2-pyridyl)-4,7-diazaspiro [2.5]octan-4-yl]-6-fluoro-1-(1-isopropylsulfonyl-2,5-dimethyl-pyrrol-3-yl) sulfonyl-indazole] | ≤ 1000
CC(C)S(=O)(=O)c1ccc(S(=O)(=O)n2nc(N3CCN(c4ncc(F)cn4)C[C@@H]3C3CC3)c3c(Cl)cccc32)cc1 [Compound 60, (S)-4-chloro-3-(2-cyclopropyl-4-(5-fluoropyrimidin-2-yl)piperazin-1-yl)-1-((4-(isopropylsulfonyl)phenyl)sulfonyl)-1H-indazole] | ≤ 1000
CC(C)S(=O)(=O)c1ccc(S(=O)(=O)n2nc(N3CCC[C@@H]3C(F)(F)F)c3c(Cl)cccc32)cc1 [Compound 109, 4-chloro-1-(4-isopropylsulfonylphenyl)sulfonyl-3-[(2R)-2-(trifluoromethyl)pyrrolidin-1-yl]indazole] | ≤ 1000
CC(C)S(=O)(=O)c1ccc(S(=O)(=O)n2nc(N3CC=C(Cl)C[C@H]3C(F)(F)F)c3c(Cl)cccc32)cc1 (single isomer, unassigned) [Compound 83] | ≤ 1000
CC(C)S(=O)(=O)n1ccc(S(=O)(=O)n2nc(N3CCN(S(C)(=O)=O)CC34CC4)c3c(Cl)cc(F)cc32)c1 [Compound 183, 4-chloro-6-fluoro-1-((1-(isopropylsulfonyl)-1H-pyrrol-3-yl)sulfonyl)-3-(7-(methylsulfonyl)-4,7-diazaspiro [2.5]octan-4-yl)-1H-indazole] | 1000 to 10000
CC(F)(F)c1ccc(S(=O)(=O)n2nc(N3CCN(c4ncc(F)cn4)CC34CC4)c3c(F)cccc32)cc1 [Compound 133, 1-[4-(1,1-difluoroethyl)phenyl]sulfonyl-4-fluoro-3-[7-(5-fluoropyrimidin-2-yl)-4,7-diazaspiro [2.5]octan-4-yl]indazole] | ≤ 1000
CC(C)S(=O)(=O)c1ccc(S(=O)(=O)n2nc(N3CCN(c4ncc(Cl)cn4)CC34CC4)c3c(Cl)cc(F)cc32)s1 [Compound 36, 4-chloro-3-(7-(5-chloropyrimidin-2-yl)-4,7-diazaspiro [2.5]octan-4-yl)-6-fluoro-1-((5-(isopropylsulfonyl)thiophen-2-yl)sulfonyl)-1H-indazole] | ≤ 1000
CC(C)S(=O)(=O)n1ccc(S(=O)(=O)n2nc(N3CCN(c4ncc(Cl)cc4F)CC34CC4)c3c(Cl)cccc32)c1 [Compound 140, 4-chloro-3-[7-(5-chloro-3-fluoro-2-pyridyl)-4,7-diazaspiro [2.5]octan-4-yl]-1-(1-isopropylsulfonylpyrrol-3-yl) sulfonyl-indazole] | ≤ 1000
CC(C)S(=O)(=O)n1ccc(S(=O)(=O)n2nc(N3CCN(c4ncc(Cl)cc4F)CC34CC4)c3c(Cl)ccc(F)c32)c1 [Compound 147, 4-chloro-3-[7-(5-chloro-3-fluoro-2-pyridyl)-4,7-diazaspiro [2.5]octan-4-yl]-7-fluoro-1-(1-isopropylsulfonylpyrrol-3-yl) sulfonyl-indazole] | ≤ 1000
CC(F)(F)c1ccc(S(=O)(=O)n2nc(N3CCN(c4ncc(F)cn4)CC3C(C)(C)F)c3c(Cl)cccc32)cc1 (centres unmarked) [Compound 105, 4-chloro-1-((4-(1,1-difluoroethyl)phenyl)sulfonyl)-3-(2-(2-fluoropropan-2-yl)-4-(5-fluoropyrimidin-2-yl)piperazin-1-yl)-1H-indazole] | ≤ 1000
CC(C)S(=O)(=O)c1ccc(S(=O)(=O)n2nc(N3CCN(c4ncc(F)cc4F)CC34CC4)c3c(F)cccc32)cc1 [Compound 26, 3-[7-(3,5-difluoro-2-pyridyl)-4,7-diazaspiro [2.5]octan-4-yl]-4-fluoro-1-(4-isopropylsulfonylphenyl) sulfonyl-indazole] | ≤ 1000
CC(C)S(=O)(=O)n1ccc(S(=O)(=O)n2nc(N3CCN(c4ncc(F)cn4)CC34CC4)c3c(Cl)cc(F)cc32)c1 [Compound 155, 4-chloro-6-fluoro-3-(7-(5-fluoropyrimidin-2-yl)-4,7-diazaspiro [2.5]octan-4-yl)-1-((1-(isopropylsulfonyl)-1H-pyrrol-3-yl)sulfonyl)-1H-indazole] | ≤ 1000
CC(C)S(=O)(=O)n1ccc(S(=O)(=O)n2nc(N3CCN(c4ccc(F)cc4)CC34CC4)c3c(Cl)cc(F)cc32)c1 [Compound 175, 4-chloro-6-fluoro-3-(7-(4-fluorophenyl)-4,7-diazaspiro [2.5]octan-4-yl)-1-((1-(isopropylsulfonyl)-1H-pyrrol-3-yl)sulfonyl)-1H-indazole] | ≤ 1000
CC(C)S(=O)(=O)n1ccc(S(=O)(=O)n2nc(N3CCN(c4ncc(F)cc4F)CC34CC4)c3c(Cl)cc(F)cc32)n1 [Compound 199, 4-chloro-3-[7-(3,5-difluoro-2-pyridyl)-4,7-diazaspiro [2.5]octan-4-yl]-6-fluoro-1-(1-isopropylsulfonylpyrazol-3-yl) sulfonyl-indazole] | ≤ 1000
CC(C)S(=O)(=O)n1ccc(S(=O)(=O)n2nc(N3CCN(c4ncc(Cl)cc4F)CC34CC4)c3c(Cl)cncc32)c1 [Compound 151, 4-chloro-3-[7-(5-chloro-3-fluoro-2-pyridyl)-4,7-diazaspiro [2.5]octan-4-yl]-1-(1-isopropylsulfonylpyrrol-3-yl) sulfonyl-pyrazolo [3,4-c]pyridine] | ≤ 1000
CC(F)(F)c1ccc(S(=O)(=O)n2nc(N3CCN(c4ccc(F)cc4F)CC34CC4)c3c(Cl)cccc32)cc1 [Compound 126, 4-chloro-1-((4-(1,1-difluoroethyl)phenyl)sulfonyl)-3-(7-(2,4-difluorophenyl)-4,7-diazaspiro[2.5]octan-4-yl)-1H-indazole] | ≤ 1000
CC(F)(F)c1ccc(S(=O)(=O)n2nc(N3CCN(C4COC4)CC34CC4)c3c(Cl)cccc32)cc1 [Compound 119, 4-chloro-1-((4-(1,1-difluoroethyl)phenyl)sulfonyl)-3-(7-(oxetan-3-yl)-4,7-diazaspiro[2.5]octan-4-yl)-1H-indazole] | ≤ 1000
CC(C)S(=O)(=O)n1ccc(S(=O)(=O)n2nc(N3CCN(c4ncc(Cl)cc4F)CC34CC4)c3c(Cl)cc(F)cc32)c1 [Compound 150, 4-chloro-3-(7-(5-chloro-3-fluoropyridin-2-yl)-4,7-diazaspiro [2.5]octan-4-yl)-6-fluoro-1-((1-(isopropylsulfonyl)-1H-pyrrol-3-yl)sulfonyl)-1H-indazole] | ≤ 1000
CC(C)S(=O)(=O)n1ccc(S(=O)(=O)n2nc(N3CCN(c4ncc(F)cc4F)CC34CC4)c3c(Cl)ccc(F)c32)c1 [Compound 142, 4-chloro-3-[7-(3,5-difluoro-2-pyridyl)-4,7-diazaspiro [2.5]octan-4-yl]-7-fluoro-1-(1-isopropylsulfonylpyrrol-3-yl) sulfonyl-indazole] | ≤ 1000
CC(C)S(=O)(=O)c1nc(S(=O)(=O)n2nc(N3CCN(c4ncc(F)cc4F)CC34CC4)c3c(F)cc(F)cc32)cs1 [Compound 198, 4-((3-(7-(3,5-difluoropyridin-2-yl)-4,7-diazaspiro [2.5]octan-4-yl)-4,6-difluoro-1H-indazol-1-yl)sulfonyl)-2-(isopropylsulfonyl) thiazole] | 1000 to 10000
CC(C)S(=O)(=O)n1ccc(S(=O)(=O)n2nc(N3CCN(c4ncc(F)cn4)CC34CC4)c3c(F)ccc(F)c32)c1 [Compound 149, 4,7-difluoro-3-(7-(5-fluoropyrimidin-2-yl)-4,7-diazaspiro [2.5]octan-4-yl)-1-((1-(isopropylsulfonyl)-1H-pyrrol-3-yl)sulfonyl)-1H-indazole] | ≤ 1000
